From article PMC6152194 (Molecules : A Journal of Synthetic Chemistry and Natural …, 2017)
Values joined by “and” are separate entries in the source; they are usually repeats but may differ in a detail not shown here. Equal entries are not always repeated. Where two headings read alike, the source gives them in different places.

How the values were obtained:
[1] = biological target: T1, horse BChE (Equus caballus, UniProt P81908); conditions: hydrolysis of BSCh by horse BChE, same conditions; cited from earlier work
T1 construct: purchased Worthington Biochemical Corporation
T1 sequence (P81908 whole entry): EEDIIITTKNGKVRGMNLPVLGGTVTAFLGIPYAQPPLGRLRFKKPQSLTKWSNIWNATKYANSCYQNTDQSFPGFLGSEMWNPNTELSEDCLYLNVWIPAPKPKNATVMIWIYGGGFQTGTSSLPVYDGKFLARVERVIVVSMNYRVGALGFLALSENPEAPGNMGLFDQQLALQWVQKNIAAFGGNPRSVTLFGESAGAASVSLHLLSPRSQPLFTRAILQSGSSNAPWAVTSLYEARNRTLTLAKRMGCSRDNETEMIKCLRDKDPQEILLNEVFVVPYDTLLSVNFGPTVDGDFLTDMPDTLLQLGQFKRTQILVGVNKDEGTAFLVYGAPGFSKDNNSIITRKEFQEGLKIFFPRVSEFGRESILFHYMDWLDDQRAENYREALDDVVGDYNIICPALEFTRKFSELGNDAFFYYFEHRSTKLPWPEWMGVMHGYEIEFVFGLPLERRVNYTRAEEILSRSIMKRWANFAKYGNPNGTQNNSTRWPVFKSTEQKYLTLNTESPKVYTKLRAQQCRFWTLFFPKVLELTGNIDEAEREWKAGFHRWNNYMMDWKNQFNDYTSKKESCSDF

[2] = biological target: T1, horse BChE; test: biochemical; format: biochemical; conditions: for type of inhibition: hydrolysis of 50 μM BSCh, progress curves to 600 s; for Kon: pH 7.0
Description: Purified horse BChE was from Worthington Biochemical Corporation, dithio-bis-di-nitro benzoic acid and butyrylthiocholine iodide (BSCh) were from Sigma, tetramethylammonium iodide (TMA), tetraethylammonium iodide (TEA), edrophonium chloride (EDR), and methanesulfonylfluoride (MSF) were from BDH; decamethonium bromide (DME) was from Koch Light Laboratories; sodium fluoride and d-Tubocurarine were from Fluka AG. N-((1-benzylpiperidin-3-yl)methyl)-N-methylnaphthalene-2-sulfonamide (942) was synthesized in the Faculty of Pharmacy, University of Ljubljana (Ljubljana, Slovenia). All other reagents used were of analytical grade. The experiments were carried out at 25 °C in 25 mM phosphate buffer, pH 7.0.
A series of compounds were tested by measuring the progress curves for BSCh hydrolysis by horse BChE in the absence and presence of each compound at a single concentration over 10 min, in a 0.6 mL cuvette, using the method of Ellman et al.. […] The concentration of horse BChE, which was always added last, was ~1 nM, for hydrolysis of 50 μM BSCh to completion (in most cases), in the presence of 1 mM dithio-bis-di-nitro benzoic acid. Reaching the plateau was important to get an exact estimate of the actual initial BSCh concentration. This was achieved by conversion of the change in absorbance at 412 nm of the resulting thio-nitro benzoate, using a molar absorption coefficient of 13,800 mol^−1 cm^−1. All of the measurements were conducted using a conventional spectrophotometer (Lambda 45/Vis; Perkin-Elmer), and a 10-s lag period was added before the start of each measurement. The progress curves were then extrapolated to start at the origin prior to the analysis.
The progress-curve analysis was performed using the ENZO web application (Figure 2), implemented at www.enzo.cmm.ki.si. For rapid determination of the kinetics mechanisms and parameters, the Van Slyke–Cullen reaction scheme for substrate hydrolysis by horse BChE was combined with a reversible competitive inhibition mechanism, as expected for active-site-directed ligands. […] In the initial evaluation, all of the second-order binding rate constants (kon’s), although not the constant for MSF, were set to the diffusion rate-limited value of 2 ×10^8 M^−1 s^−1. Therefore, only the first-order dissociation rate constants, together with the substrate specificity constant kcat/Km, the initial substrate concentration, and the added horse BChE active-site concentration, had to be evaluated. The kcat of 663 s^−1 for the hydrolysis of BSCh by horse BChE was taken from a previous study performed under the same conditions.
Therefore, a similar experiment was performed, but in the presence of three additional sodium fluoride concentrations (0.25, 1, 2.5 mM). Each of these measurements was performed twice in a row to determine the reliability of the data obtained. The progress curve analysis was then performed using four types of classical inhibition mechanisms: competitive, uncompetitive, non-competitive, and mixed. Again, a 10-s lag period was added to the time-course of each measurement prior to the analysis using the ENZO web application.

[3] = 50 μM BSCh, 25 °C, 25 mM phosphate buffer pH 7.0, single progress curve, competitive mechanism, read-out: Ki
[4] = slow isomerization step after instantaneous binding, 50 μM BSCh

**Q.** With `CCCC(=O)SCC[N+](C)(C)C.[I-]` [BSCh, butyrylthiocholine iodide] as the compound, how does the kcat [1] read?
**A.** 663 s⁻¹

**Q.** What does the source list for `C[N+](C)(C)CCCCCCCCCC[N+](C)(C)C` [Decamethonium, decamethonium bromide]?
**A.** Ki [2]: 7.6 µM; type of inhibition [2]: reversible competitive inhibitors

**Q.** For `CC[N+](C)(C)c1cccc(O)c1` [Edrophonium, edrophonium chloride], which Ki [2] is on record?
**A.** 21 µM

**Q.** What about the type of inhibition [2] of the same compound?
**A.** reversible competitive inhibitors

**Q.** Which type of inhibition [2] does the source give for `CS(=O)(=O)F` [Methanesulfonylfluoride, methanesulfonylfluoride] here?
**A.** irreversible inhibitor

**Q.** And the Kon ([2]; irreversible inhibition step, 15 mM MSF, 50 μM BSCh, 25 °C)?
**A.** 0.39 s⁻¹

**Q.** Which results are given for `[F-].[Na+]` [Sodium fluoride, sodium fluoride]?
**A.** Ki ([2]; competitive component of mixed inhibition, from Figure 3, 0.25, 0.5, 1 and 2.5 mM sodium fluoride, 50 μM BSCh, read-out: Ki): 830 µM; type of inhibition [2]: mixed reversible inhibitor; uncompetitive component stronger than the competitive component ([2]; mixed inhibition model, Table 1): 2.4 fold; Kii ([2]; uncompetitive component of mixed inhibition, from Figure 3, 0.25, 0.5, 1 and 2.5 mM sodium fluoride, 50 μM BSCh): 0.34 mM

**Q.** Which Ki [2, 3] does the source give for `CC[N+](CC)(CC)CC.[I-]` [Tetraethylammonium, tetraethylammonium iodide] here?
**A.** 1500 µM

**Q.** What about the type of inhibition [2] of the same compound?
**A.** reversible competitive inhibitors

**Q.** Which Ki [2, 3] does the source give for `C[N+](C)(C)C.[I-]` [Tetramethylammonium, tetramethylammonium iodide] here?
**A.** 2400 µM

**Q.** And the type of inhibition [2]?
**A.** reversible competitive inhibitors

**Q.** Which Kon ([2]; association rate constant, 50 μM BSCh, 25 °C) does the source give for `CN(CC1CCCN(Cc2ccccc2)C1)S(=O)(=O)c1ccc2ccccc2c1` (centres unmarked) [compound 942, N-((1-benzylpiperidin-3-yl)methyl)-N-methylnaphthalene-2-sulfonamide] here?
**A.** 6.2e+07 M⁻¹ s⁻¹ and 6.2 M⁻¹ s⁻¹

**Q.** And the type of inhibition [2]?
**A.** tight binder

**Q.** What about the Ki ([2]; read-out: Ki) of the same compound?
**A.** 0.00043 µM

**Q.** Which results are given for `COc1cc2c3cc1Oc1cc(ccc1O)C[C@@H]1c4c(cc(OC)c(O)c4Oc4ccc(cc4)C[C@@H]3N(C)CC2)CC[N+]1(C)C` [d-Tubocurarine]?
**A.** Ki [2]: 5.1 µM; type of inhibition [2]: slow binder; K+isomerization [2, 4]: 0.029 s⁻¹; K-isomerization [2, 4]: 0.010 s⁻¹

**Q.** With `[I-].[Na+]` [sodium iodide] as the compound, how does the “inhibition of BSCh hydrolysis” value ([2]; at 0.5 mM, data not shown) read?
**A.** no inhibition
